Laboratory results as given in US10123998B2, “Kinase modulation, and indications therefor” (Plexxikon Inc., priority 2012, dated 2018).

Each compound was assayed on Osteoclast precursor cells (assay: Osteoclast differentiation assay).
Type: cell-based
Method: Further, an osteoclast differentiation assay is used to assess the efficacy of Fms inhibitors for treating bone disease such as osteoarthritis. On day 0, Osteoclast Medium BulletKit (Lonza catalog # PT-8001, containing Media, FBS, L-Glutamine, PenStrep, RANKL, and M-CSF) media is thawed and the FBS, L-glutamine and PenStrep from the kit is added to 100 mL of Osteoclast Precursor Basal medium to provide the Osteoclast Precursor Growth Medium (OPGM). This is warmed to 37° C. Osteoclast precursor cells (Lonza catalog #2T-110) frozen in cryovial are warmed to 37° C. and transferred to a 50 mL conical tube. The cryovial is rinsed with OPGM and added dropwise to the conical tube of cells with swirling, then the volume is adjusted to 20-30 mL with addition of OPGM. The cells are centrifuged at 200×g for 15 minutes at room temperature and all but approximately 3 mL of supernatant is removed to a new conical tube. The cells are suspended in the remaining supernatant and the volume is adjusted to 10-15 mL with OPGM added dropwise with swirling. The cells are centrifuged at 200×g for 15 minutes at room temperature and all but approximately 1 mL of supernatant is removed. The cells are resuspended in the remaining supernatant, counted, and the volume adjusted with an appropriate amount of OPGM to provide approximately 1×10^5 cells/mL. A 0.1 mL aliquot of cells is added to each well of a 96-well plate. Compound to be tested is prepared in DMSO for plating at a high concentration of 2.5 mM, with 8 point 1:3 serial dilutions. A 1 μL aliquot of each compound dilution is added to a 96 well v-bottom polypropylene plate and 0.124 mL of OPGM is added to the compound. Then 50 μL of the compound in OPGM is added to the osteoclast precursor cells in 96-well plate (providing highest test concentration of 5 μM). RANKL (2 μg) from the BulletKit is reconstituted in 1 mL of OPGM, then vortexed and centrifuged briefly. A 792 μL aliquot of RANKL is added to 6 mL of OPGM and 50 μL is added to low control wells. Then 76.6 μL M-CSF ([…]) from the BulletKit is added to the remaining 5.8 mL of OPGM/RANKL solution (4×RANKL/M-CSF/OPGM). A 50 μL aliquot of this is added to the remaining wells, and the remainder is stored at 4° C. for later use. The plate is incubated at 37° C. for 6 days, then the remaining OPGM/RANKL/M-CSF solution is warmed to 37° C. The remaining approximately 198 μL is combined with 6 mL of OPGM. The media is aspirated from the osteoclast wells and 100 μL of RANKL/OPGM is added to the low controls. The remaining RANKL/OPGM is combined with the approximately 18.5 μL of remaining M-CSF. The remaining 4×RANKL/M-CSF/OPGM from day 0 is diluted to 1× and combined with the freshly prepared solution. A 0.1 mL aliquot of this is added to each osteoclast well and incubated for 37° C. for 1 day. The Acid Phosphatase kit (Cayman Chemical catalog #10008051) is warmed to room temperature. The assay buffer is diluted 5 mL with 45 mL of water. For each plate, two substrate tablets are dissolved in 4.5 mL of the assay buffer, mixing by vortex to break up the tablet. Stop solution is diluted 12 mL with 36 mL of water. In a tissue culture hood, 20 μL of each osteoclast well supernatant is transferred to a 96 well plate. A 30 μL aliquot of the substrate solution is added to each well and incubated at 37° C. for 20 minutes, then added […] stop solution to each well. The absorbance of each well is read at 405 nm on Safire plate reader. The absorbance reading is plotted vs. concentration to provide the IC50 for each compound.

Question: For COc1ccc(CNc2ncc(Cc3c[nH]c4ncc(C)cc34)cc2C)cn1 [Compound P-1554, (6-Methoxy-pyridin-3-ylmethyl)-[3-methyl-5-(5-methyl-1H-pyrrolo[2,3-b]pyridin-3-ylmethyl)-pyridin-2-yl]-amine], which IC50 is on record?
Answer: < 100 nM

Question: Which IC50 does the source give for Fc1cncc(CNc2ccc(Cc3c[nH]c4ncc(Cl)cc34)c(F)n2)c1 [Compound P-2001, [5-(5-Chloro-1H-pyrrolo[2,3-b]pyridin-3-ylmethyl)-6-fluoro-pyridin-2-yl]-(5-fluoro-pyridin-3-ylmethyl)-amine] here?
Answer: < 100 nM

Question: With Clc1cnc2[nH]cc(Cc3ccc(NCc4ccc(Cl)nc4)nc3)c2c1 [Compound P-2003, (6-Chloro-pyridin-3-ylmethyl)-[5-(5-chloro-1H-pyrrolo[2,3-b]pyridin-3-ylmethyl)-pyridin-2-yl]-amine] as the compound, how does the IC50 read?
Answer: < 100 nM

Question: For Fc1ccc(CNc2ccc(Cc3c[nH]c4ncc(Cl)cc34)cn2)cn1 [Compound P-2004, [5-(5-Chloro-1H-pyrrolo[2,3-b]pyridin-3-ylmethyl)-pyridin-2-yl]-(6-fluoro-pyridin-3-ylmethyl)-amine], which IC50 is on record?
Answer: < 100 nM

Question: With Cc1cnc2[nH]cc(Cc3ccc(NCc4ccc(C(F)(F)F)nc4)nc3)c2c1 [Compound P-2019, [5-(5-Methyl-1H-pyrrolo[2,3-b]pyridin-3-ylmethyl)-pyridin-2-yl]-(6-trifluoromethyl-pyridin-3-ylmethyl)-amine] as the compound, how does the IC50 read?
Answer: < 100 nM

Question: Which IC50 does the source give for COc1cnc2[nH]cc(Cc3ccc(NCc4cncc(F)c4)nc3F)c2c1 [Compound P-2028, [6-Fluoro-5-(5-methoxy-1H-pyrrolo[2,3-b]pyridin-3-ylmethyl)-pyridin-2-yl]-(5-fluoro-pyridin-3-ylmethyl)-amine] here?
Answer: < 100 nM

Question: How did the IC50 turn out when COc1ccc(CNc2ccc(Cc3c[nH]c4ncc(C)cc34)c(F)n2)cn1 [Compound P-2029, [6-Fluoro-5-(5-methyl-1H-pyrrolo[2,3-b]pyridin-3-ylmethyl)-pyridin-2-yl]-(6-methoxy-pyridin-3-ylmethyl)-amine] was run?
Answer: < 100 nM

Question: With COc1cnc2[nH]cc(Cc3ccc(NCc4ccc(OC)nc4)nc3F)c2c1 [Compound P-2030, [6-Fluoro-5-(5-methoxy-1H-pyrrolo[2,3-b]pyridin-3-ylmethyl)-pyridin-2-yl]-(6-methoxy-pyridin-3-ylmethyl)-amine] as the compound, how does the IC50 read?
Answer: < 100 nM

Question: Cc1cnc2[nH]cc(Cc3ccc(NCc4ccc(C(F)(F)F)nc4)nc3F)c2c1 [Compound P-2031, [6-Fluoro-5-(5-methyl-1H-pyrrolo[2,3-b]pyridin-3-ylmethyl)-pyridin-2-yl]-(6-trifluoromethyl-pyridin-3-ylmethyl)-amine] was tested. Which IC50 did it give?
Answer: < 100 nM

Question: For COc1cnc2[nH]cc(Cc3ccc(NCc4ccc(Cl)cc4)nc3F)c2c1 [Compound P-2032, (4-Chloro-benzyl)-[6-fluoro-5-(5-methoxy-1H-pyrrolo[2,3-b]pyridin-3-ylmethyl)-pyridin-2-yl]-amine], which IC50 is on record?
Answer: < 100 nM

Question: COc1ccnc2[nH]cc(Cc3ccc(NCc4ccc(Cl)cc4)nc3F)c12 [Compound P-2037, (4-Chloro-benzyl)-[6-fluoro-5-(4-methoxy-1H-pyrrolo[2,3-b]pyridin-3-ylmethyl)-pyridin-2-yl]-amine] was tested. Which IC50 did it give?
Answer: < 100 nM

Question: For COc1ccc(CNc2ncc(Cc3c[nH]c4ncc(Cl)cc34)cn2)cn1 [Compound P-2038, [5-(5-Chloro-1H-pyrrolo[2,3-b]pyridin-3-ylmethyl)-pyrimidin-2-yl]-(6-methoxy-pyridin-3-ylmethyl)-amine], which IC50 is on record?
Answer: < 100 nM

Question: For COc1ncccc1CNc1ccc(Cc2c[nH]c3ncccc23)c(F)n1 [Compound P-2045, [6-Fluoro-5-(1H-pyrrolo[2,3-b]pyridin-3-ylmethyl)-pyridin-2-yl]-(2-methoxy-pyridin-3-ylmethyl)-amine], which IC50 is on record?
Answer: < 100 nM

Question: COc1ncc(CNc2ccc(Cc3c[nH]c4ncc(C)cc34)c(F)n2)cc1F [Compound P-2048, (5-Fluoro-6-methoxy-pyridin-3-ylmethyl)-[6-fluoro-5-(5-methyl-1H-pyrrolo[2,3-b]pyridin-3-ylmethyl)-pyridin-2-yl]-amine] was tested. Which IC50 did it give?
Answer: < 100 nM

Question: How did the IC50 turn out when COc1ncc(F)cc1CNc1ccc(Cc2c[nH]c3ncc(C)cc23)c(F)n1 [Compound P-2049, (5-Fluoro-2-methoxy-pyridin-3-ylmethyl)-[6-fluoro-5-(5-methyl-1H-pyrrolo[2,3-b]pyridin-3-ylmethyl)-pyridin-2-yl]-amine] was run?
Answer: < 100 nM

Question: Which IC50 does the source give for COc1ncccc1CNc1ccc(Cc2c[nH]c3ncc(C)cc23)c(F)n1 [Compound P-2052, [6-Fluoro-5-(5-methyl-1H-pyrrolo[2,3-b]pyridin-3-ylmethyl)-pyridin-2-yl]-(2-methoxy-pyridin-3-ylmethyl)-amine] here?
Answer: < 100 nM

Question: How did the IC50 turn out when COc1ccc(CNc2ncc(Cc3c[nH]c4ncc(C)cc34)cn2)cn1 [Compound P-2057, (6-Methoxy-pyridin-3-ylmethyl)-[5-(5-methyl-1H-pyrrolo[2,3-b]pyridin-3-ylmethyl)-pyrimidin-2-yl]-amine] was run?
Answer: < 100 nM

Question: For COc1ncc(F)cc1CNc1ncc(Cc2c[nH]c3ncc(C)cc23)cn1 [Compound P-2061, (5-Fluoro-2-methoxy-pyridin-3-ylmethyl)-[5-(5-methyl-1H-pyrrolo[2,3-b]pyridin-3-ylmethyl)-pyrimidin-2-yl]-amine], which IC50 is on record?
Answer: < 100 nM

Question: With FC(F)(F)c1ccncc1CNc1ccc(Cc2c[nH]c3ncc(Cl)cc23)cn1 [Compound P-2063, [5-(5-Chloro-1H-pyrrolo[2,3-b]pyridin-3-ylmethyl)-pyridin-2-yl]-(4-trifluoromethyl-pyridin-3-ylmethyl)-amine] as the compound, how does the IC50 read?
Answer: < 100 nM

Question: COc1ncc(F)cc1CNc1ncc(Cc2c[nH]c3ncc(Cl)cc23)cn1 [Compound P-2064, [5-(5-Chloro-1H-pyrrolo[2,3-b]pyridin-3-ylmethyl)-pyrimidin-2-yl]-(5-fluoro-2-methoxy-pyridin-3-ylmethyl)-amine] was tested. Which IC50 did it give?
Answer: < 100 nM

Question: Cc1cnc2[nH]cc(Cc3ccc(NCc4cnccc4C(F)(F)F)nc3)c2c1 [Compound P-2070, [5-(5-Methyl-1H-pyrrolo[2,3-b]pyridin-3-ylmethyl)-pyridin-2-yl]-(4-trifluoromethyl-pyridin-3-ylmethyl)-amine] was tested. Which IC50 did it give?
Answer: < 100 nM

Question: Which IC50 does the source give for Cc1cnc2[nH]cc(Cc3cnc(NCc4ccc(C(F)(F)F)nc4)c(F)c3)c2c1 [Compound P-2146, [3-Fluoro-5-(5-methyl-1H-pyrrolo[2,3-b]pyridin-3-ylmethyl)-pyridin-2-yl]-(6-trifluoromethyl-pyridin-3-ylmethyl)-amine] here?
Answer: < 100 nM

Question: Which IC50 does the source give for COc1cnc2[nH]cc(Cc3cnc(NCc4ccc(C(F)(F)F)nc4)c(F)c3)c2c1 [Compound P-2147, [3-Fluoro-5-(5-methoxy-1H-pyrrolo[2,3-b]pyridin-3-ylmethyl)-pyridin-2-yl]-(6-trifluoromethyl-pyridin-3-ylmethyl)-amine] here?
Answer: < 100 nM

Question: With Cn1cc(F)cc(CNc2ncc(Cc3c[nH]c4ncc(Cl)cc34)cn2)c1=O [Compound P-2157, 3-{[5-(5-Chloro-1H-pyrrolo[2,3-b]pyridin-3-ylmethyl)-pyrimidin-2-ylamino]-methyl}-5-fluoro-1-methyl-1H-pyridin-2-one] as the compound, how does the IC50 read?
Answer: < 100 nM

Question: How did the IC50 turn out when COc1ncc(CNc2ccc(Cc3c[nH]c4ncc(Cl)cc34)c(F)n2)cc1F [Compound P-2165, [5-(5-Chloro-1H-pyrrolo[2,3-b]pyridin-3-ylmethyl)-6-fluoro-pyridin-2-yl]-(5-fluoro-6-methoxy-pyridin-3-ylmethyl)-amine] was run?
Answer: < 100 nM

Question: Fc1cncc(CNc2ncc(Cc3c[nH]c4ncc(Cl)cc34)cn2)c1 [Compound P-2176, [5-(5-Chloro-1H-pyrrolo[2,3-b]pyridin-3-ylmethyl)-pyrimidin-2-yl]-(5-fluoro-pyridin-3-ylmethyl)-amine] was tested. Which IC50 did it give?
Answer: < 100 nM
